# Measurements reported in patent US20220056014A1, “PHENYLPYRROLIDINE COMPOUND AND USE THEREOF” (WUHAN HUMANWELL INNOVATIVE DRUG RESEARCH AND DEVELOPMENT …, priority 2018, published 2022).
# Read-outs that look alike come from different tables or passages of the source.
# What was measured:
# [1] = test system: LPS-induced secretion of TNFα in human PBMCs; assay: LPS-induced secretion of TNFα in human PBMCs; assay type: cell-based; details: Homo sapiens, PBMC, 24 h, LPS 10 ng/ml
# Experimental: Extraction process of peripheral blood mononuclear cells (PBMCs): one unit of human peripheral blood concentrate (concentrated from 200 cc peripheral blood) was sucked and added with 0.9% saline until a total volume reached 120 ml, and mixed homogenously. 15 ml Lymphoprep™ was added into 50 ml centrifuge tube, and then 30 ml of diluted blood concentrate was carefully and slowly added thereto, allowing the diluted blood to be stacked on the layered solution and preventing the diluted blood from being mixed into the separated solutions or breaking the surface of the separated solution, wherein a ratio of Lymphoprep™ to the diluted blood was 1:2. The centrifuge tubes were balanced and placed in a horizontal centrifuge (eppendorf, 5810R), and centrifuged at 800 g and 20° C. for 20 min. The centrifuge tubes were carefully taken out. PBMCs were absorbed by directly inserting the Pasteur pipette deep into the buffy coat. The obtained PBMCs were gently pipetted with 3 times the volume of 0.9% normal saline or PBS (without calcium or magnesium ions) to mix homogenously. After that, the cells were centrifuged at 250 g and 20° C. for 10 min, the supernatant was removed to remove the platelets remaining in the cell suspension. The obtained cell pellet was resuspended in 20 ml of PBS, and counted using trypan blue.
# Compound screening by using PBMCs: the PBMC suspension obtained above was centrifuged to remove PBS, then resuspended in complete medium (RPMI1640+10% FBS+1% P/S) and counted. 100 μL/well of the cells was seeded at 5×10^4/well. Each of the compounds to be screened was prepared as 4 times the final concentration, which was added to the cells at 50 μL/well. The compound was pre-incubated for 30 min in advance of being added to the cells. Meanwhile, control wells to which the compound was not added were provided. A final stimulation concentration of LPS was 10 ng/ml, and LPS was formulated as 4 times the final stimulation concentration, and added to the cells at 50 μL/well. Meanwhile, control wells, i.e., wells without LPS were provided. The cells were incubated for 24 h, and 10% of the supernatant was collected for detection. The obtained supernatant was detected using Invitrogen's Human TNF-α kit (REF: 88-7346-88).
# [2] = Mouse pharmacokinetic test; assay type: in vivo, CD-1 mice; details: male, CD-1, plasma, oral gavage 10 mg/kg
# Experimental: (§1) In the rat pharmacokinetic test, 3 male SD rats (180-240 g) were fasted overnight, and orally administered with 10 mg/kg of compound to be tested. Blood was collected before the administration, and 15 min, 30 min, 1 h, 2 h, 4 h, 8 h, and 24 h hours after the administration. The blood sample was centrifuged at 8000 rpm for 6 min at 4° C., and the plasma was collected and stored at −20° C. The plasma collected at each time point was added and mixed with 3-5 times the amount of acetonitrile solution containing an internal standard, vortexed for 1 min, centrifuged at 13,000 rpm for 10 min at 4° C. The supernatant was taken and mixed with 3 times the amount of water, and an appropriate amount of the mixture was taken for LC-MS/MS analysis. The main pharmacokinetic parameters were analyzed with WinNonlin 7.0 software non-compartmental model.
# (§2) In the mouse pharmacokinetic test, 9 male CD-1 mice (20-25 g) were fasted overnight, and orally administered with 10 mg/kg of the compound to be tested. Bloods of 3 mice were collected at each time point, and bloods of 9 mice were alternately collected in total. In the pharmacokinetic test in canine, 3 male beagle dogs (8-10 kg) were fasted overnight, and orally administered with 5 mg/kg of the compound to be test. In the pharmacokinetic test of cynomolgus monkeys, 3 male cynomolgus monkeys (4 to 6.5 kg) were fasted overnight, and orally administered 20 mg/kg of the compound to be test. The remaining processes are the same as those of the rat pharmacokinetic test.
# [3] = test system: LPS-stimulated TNF-α release; assay: LPS-stimulated TNF-α release in mice; assay type: in vivo, Balb/c mice; details: Mus musculus, oral 50 mg/kg (positive control 100 mg/kg), 1 mg/kg LPS i.p.
# Experimental: 18 Balb/c mice (6 to 8 weeks) were randomly assigned to a blank group, a model group, and an administration group, 6 mice in each group. A vehicle (blank group, model group) or 50 mg/kg compound (administration group, where the dose for the positive control group was 100 mg/kg) was orally administrated. 30 min after the oral administration, PBS (blank group) or 1 mg/kg LPS (model group and administration group) was injected intraperitoneally. 90 min or 120 min after the intraperitoneal injection, blood was collected from the hearts of the mice, and still stood at 2-8° C. for 4 hours, and centrifuged at 5000 rpm for 10 min to collect the serum. The serum was stored at −80° C. for testing.
# The serum TNF-α level was tested using a mouse TNF-α detection kit (Mouse TNFa ELISA kit: Biolegend, Cat: 430904). The inhibitory activity of the compounds against the TNF-α release was calculated based on the serum TNF-α level.
# Inhibitory activity of compound %={1−(TNFα concentration of administration group−TNFα concentration of blank group)/(TNFα concentration of model group−TNFα concentration of blank group)}×100%.
# [4] = target: T1, PDE4D (Homo sapiens, UniProt Q08499); assay: PDE4D enzyme activity assay (PDE-Glo Phosphodiesterase Assay Kit); assay type: biochemical
# T1 construct: purchased Enzo Life Sciences BML-SE523-0020
# T1 sequence (Q08499 whole entry): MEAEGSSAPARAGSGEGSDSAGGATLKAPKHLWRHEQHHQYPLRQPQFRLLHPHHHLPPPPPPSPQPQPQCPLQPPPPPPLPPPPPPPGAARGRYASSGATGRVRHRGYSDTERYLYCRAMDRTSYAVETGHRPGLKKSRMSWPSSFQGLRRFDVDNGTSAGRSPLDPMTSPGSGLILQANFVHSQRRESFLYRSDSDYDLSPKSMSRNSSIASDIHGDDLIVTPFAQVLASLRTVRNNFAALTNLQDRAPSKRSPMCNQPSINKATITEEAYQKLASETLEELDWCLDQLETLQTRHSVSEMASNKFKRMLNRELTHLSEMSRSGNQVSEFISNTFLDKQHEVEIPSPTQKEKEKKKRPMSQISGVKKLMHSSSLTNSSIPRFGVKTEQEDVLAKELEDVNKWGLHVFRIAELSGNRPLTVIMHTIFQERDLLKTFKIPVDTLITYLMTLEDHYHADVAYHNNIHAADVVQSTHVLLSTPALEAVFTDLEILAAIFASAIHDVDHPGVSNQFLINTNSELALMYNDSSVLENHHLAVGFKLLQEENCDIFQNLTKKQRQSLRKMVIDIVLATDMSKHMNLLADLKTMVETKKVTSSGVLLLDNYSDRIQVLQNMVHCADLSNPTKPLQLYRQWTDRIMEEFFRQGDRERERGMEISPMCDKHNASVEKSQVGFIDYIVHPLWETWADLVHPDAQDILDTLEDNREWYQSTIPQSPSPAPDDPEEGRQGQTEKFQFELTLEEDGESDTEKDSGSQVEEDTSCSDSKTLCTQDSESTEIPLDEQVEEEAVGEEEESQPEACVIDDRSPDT
# Experimental: (§3) For the previously synthesized compounds, the inhibitory activity of the compounds against PDE4B and against PDE4D was tested by using PDE-Glo Phosphodiesterase Assay Kit (promega, V1361). In short, in accordance with the instructions of the kit, a concentrated stock solution (10 mM) the compound to be tested was first prepared with DMSO solvent, and the concentrated stock solution was then diluted into 10× working solutions with a Reaction buffer provided in the kit. With the Reaction buffer, on ice, PDE4B enzyme (Enzo Life Sciences, BML-SE522-0020) was diluted to a concentration of 1 ng/μl to obtain a PDE4B enzyme working solution, and PDE4D enzyme (Enzo Life Sciences, BML-SE523-0020) was diluted to a concentration of 4 ng/μl to obtain a PDE4D enzyme working solution. 1.5 μl of the PDE4B working solution (or PDE4D working solution) and 1 μl of the compound working solution were added to wells of 384-well plate (Corning, CLS3707), and incubated with shaking at room temperature for 5 min, followed by adding 2.5 μl of cAMP (in Reaction buffer, 2 μM) per well, incubating with shaking at room temperature for 20 min. 2.5 μl/well of 1× Termination Buffer, and then 2.5 μl/well of 1× Detection Buffer were added, and further incubated with shaking at room temperature for 20 min. 10 μl/well of 1× Kinase-Glo was added, and the plate was incubated with shaking at room temperature for 10 min, and bioluminescence was measured with PheraStar instrument. The experimental results were plotted with GraphPad Prism software, and fitted to calculate IC50 of each compound.
# [5] = Pharmacokinetic test in canine; assay type: in vivo, beagle dogs; details: male, beagle, dog, plasma, oral gavage 5 mg/kg
# Experimental: as §1, §2
# [6] = target: T2, PDE4B (Homo sapiens, UniProt Q07343); assay: PDE4B enzyme activity assay (PDE-Glo Phosphodiesterase Assay Kit); assay type: biochemical; details: for IC50 (PDE4D)/IC50 (PDE4B): selectivity ratio
# T2 construct: purchased Enzo Life Sciences BML-SE522-0020
# T2 sequence (Q07343 whole entry): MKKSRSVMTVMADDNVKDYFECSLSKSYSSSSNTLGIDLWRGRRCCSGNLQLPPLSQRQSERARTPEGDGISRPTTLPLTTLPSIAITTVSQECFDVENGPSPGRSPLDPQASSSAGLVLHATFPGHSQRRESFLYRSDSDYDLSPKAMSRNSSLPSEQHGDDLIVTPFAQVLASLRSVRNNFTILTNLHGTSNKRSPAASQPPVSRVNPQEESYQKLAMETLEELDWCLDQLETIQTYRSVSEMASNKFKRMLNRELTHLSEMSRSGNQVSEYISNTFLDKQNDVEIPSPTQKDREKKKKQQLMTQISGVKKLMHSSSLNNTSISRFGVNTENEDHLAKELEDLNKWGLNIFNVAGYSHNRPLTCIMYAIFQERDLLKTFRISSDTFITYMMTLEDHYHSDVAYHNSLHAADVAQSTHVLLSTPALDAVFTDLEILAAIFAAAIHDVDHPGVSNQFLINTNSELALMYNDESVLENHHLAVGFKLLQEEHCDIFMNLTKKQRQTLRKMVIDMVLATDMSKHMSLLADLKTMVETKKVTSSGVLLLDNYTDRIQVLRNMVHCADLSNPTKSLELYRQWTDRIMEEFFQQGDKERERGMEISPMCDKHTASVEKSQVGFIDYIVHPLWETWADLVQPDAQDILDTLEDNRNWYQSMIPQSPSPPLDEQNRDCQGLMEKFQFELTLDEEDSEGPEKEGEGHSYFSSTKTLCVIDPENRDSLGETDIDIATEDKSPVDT
# Experimental: as §3
# [7] = Rat pharmacokinetic test; assay type: in vivo, SD rats; details: male, Sprague-Dawley (SD), plasma, oral gavage 10 mg/kg
# Experimental: as §1
# [8] = 2 h, blood 120 min after LPS, read-out: Inhibition rate (%) of LPS-stimulated TNF-α release, 120 min
# [9] = 1.5 h, blood 90 min after LPS, read-out: Inhibition rate (%) of LPS-stimulated TNF-α release, 90 min
smiles,measurement,setting,value
"COc1ccc([C@@H]2CN(C(=O)[C@@H](O)CO)C[C@@]2(C)[C@@H](C)O)cc1OC1CN(c2cc(C)c(C)cn2)C1 [Compound 008, (S)-1-((3S,4S)-4-(3-((1-(4,5-dimethylpyridin-2-yl)azetidin-3-yl)oxy)-4-methoxyphenyl)-3-((R)-1-hydroxyethyl)-3-methylpyrrolidin-1-yl)-2,3-dihydroxypropan-1-one]",IC50,[1],1.81 nM
same,AUC(0-t),[2],625 ng·h/mL
same,Cmax,[2],298 ng/mL
same,Tmax,[2],30 min
same,inhibition in vivo at 50 mg/kg,[3]; [8],63%
same,IC50,[4],3.58 nM
same,AUC(0-t),[5],1760 ng·h/mL
same,Cmax,[5],534 ng/mL
same,Tmax,[5],30 min
same,IC50,[6],1.46 nM
same,IC50 (PDE4D)/IC50 (PDE4B),[6],2.45
same,AUC(0-t),[7],443 ng·h/mL
same,Cmax,[7],133 ng/mL
same,Tmax,[7],15 min
"COc1ccc([C@@H]2CN(C(=O)[C@@H](O)CO)C[C@@]2(C)[C@@H](C)O)cc1OC1CN(c2cc(Cl)c(C)cn2)C1 [Compound 002, (S)-1-((3S,4S)-4-(3-((1-(4-chloro-5-methylpyridin-2-yl)azetidin-3-yl)oxy)-4-methoxyphenyl)-3-((R)-1-hydroxyethyl)-3-methylpyrrolidin-1-yl)-2,3-dihydroxypropan-1-one]",IC50,[1],0.56 nM
same,AUC(0-t),[2],386 ng·h/mL
same,Cmax,[2],355 ng/mL
same,Tmax,[2],15 min
same,inhibition in vivo at 50 mg/kg,[3]; [8],66.2%
same,IC50,[4],0.16 nM
same,AUC(0-t),[5],534 ng·h/mL
same,Cmax,[5],198 ng/mL
same,Tmax,[5],60 min
same,IC50,[6],0.43 nM
same,IC50 (PDE4D)/IC50 (PDE4B),[6],0.37
same,AUC(0-t),[7],103 ng·h/mL
same,Cmax,[7],41.6 ng/mL
same,Tmax,[7],19.8 min
"COc1ccc([C@@H]2CN(C(=O)[C@@H](O)CO)C[C@@]2(C)[C@@H](C)O)cc1OC1CN(c2cc(C)c(Cl)cn2)C1 [Compound 010, (S)-1-((3S,4S)-4-(3-((1-(5-chloro-4-methylpyridin-2-yl)azetidin-3-yl)oxy)-4-methoxyphenyl)-3-((R)-1-hydroxyethyl)-3-methylpyrrolidin-1-yl)-2,3-dihydroxypropan-1-one]",IC50,[1],1.05 nM
same,AUC(0-t),[2],645 ng·h/mL
same,Cmax,[2],314 ng/mL
same,Tmax,[2],15 min
same,inhibition in vivo at 50 mg/kg,[3]; [9],47.6%
same,inhibition in vivo at 50 mg/kg,[3]; [8],65.4%
same,IC50,[4],0.95 nM
same,AUC(0-t),[5],1640 ng·h/mL
same,Cmax,[5],413 ng/mL
same,Tmax,[5],49.8 min
same,IC50,[6],1.9 nM
same,IC50 (PDE4D)/IC50 (PDE4B),[6],0.50
same,AUC(0-t),[7],95.3 ng·h/mL
same,Cmax,[7],40.4 ng/mL
same,Tmax,[7],19.8 min
"CCOc1ccc(N2CC(Oc3cc([C@@H]4CN(C(=O)[C@@H](O)CO)C[C@@]4(C)[C@@H](C)O)ccc3OC)C2)nc1 [Compound 022, (S)-1-((3S,4S)-4-(3-((1-(5-ethoxypyridin-2-yl)azetidin-3-yl)oxy)-4-methoxyphenyl)-3-((R)-1-hydroxyethyl)-3-methylpyrrolidin-1-yl)-2,3-dihydroxypropan-1-one]",IC50,[1],1.01 nM
same,AUC(0-t),[2],215 ng·h/mL
same,Cmax,[2],186 ng/mL
same,Tmax,[2],15 min
same,inhibition in vivo at 50 mg/kg,[3]; [9],60.7%
same,IC50,[4],1.18 nM
same,IC50,[6],0.75 nM
same,IC50 (PDE4D)/IC50 (PDE4B),[6],1.57
same,AUC(0-t),[7],410 ng·h/mL
same,Cmax,[7],221 ng/mL
same,Tmax,[7],19.8 min
"COc1ccc([C@@H]2CN(C(=O)[C@@H](O)CO)C[C@@]2(C)[C@@H](C)O)cc1OC1CN(c2cc(C#N)c(C)cn2)C1 [Compound 001, 2-(3-(5-((3S,4S)-1-((S)-2,3-dihydroxypropanoyl)-4-((R)-1-hydroxyethyl)-4-methylpyrrolidin-3-yl)-2-methoxyphenoxy)azetidin-1-yl)-5-methylisonicotinonitrile]",IC50,[1],0.36 nM
same,AUC(0-t),[2],311 ng·h/mL
same,Cmax,[2],339 ng/mL
same,Tmax,[2],15 min
same,inhibition in vivo at 50 mg/kg,[3]; [9],53.6%
same,inhibition in vivo at 50 mg/kg,[3]; [8],39.5%
same,IC50,[4],0.67 nM
same,IC50,[6],0.91 nM
same,IC50 (PDE4D)/IC50 (PDE4B),[6],0.74
same,AUC(0-t),[7],23.5 ng·h/mL
same,Cmax,[7],22.5 ng/mL
same,Tmax,[7],19.8 min
